Experimental data: patent publication US20220378706A1, “PHARMACEUTICAL COMPOSITION COMPRISING PDE9 INHIBITOR” (Eisai R&D Management Co., Ltd., priority 2017, published 2022)
Where two headings read alike, the source gives them in different places.

Assay: Single dose clinical study: plasma Compound A pharmacokinetics
Assay type: in vivo, human
Protocol: This was a single center, single dose, randomized, double blind, placebo controlled study in healthy subjects. It consisted of 4 parts: Parts A, B, C, and D. Each of the four study parts had 2 phases: Prerandomization Phase and Randomization Phase. The Prerandomization Phase lasted up to 30 days and consisted of a Screening Period and a Baseline Period, during which each subject's study eligibility was determined and baseline assessments were performed.
In Part A, there were 8 sequential cohorts of healthy adult subjects (18-50 years of age). Subjects were randomly assigned to Compound A or placebo in a ratio of 6:2, respectively. Subjects in the Compound A cohorts were treated with single ascending doses of 10, 25, 50, 100, 200, 400, 800, or 1200 mg.
In Part B, there were 4 cohorts of healthy adult subjects (18-50 years of age). There were 8 subjects in Cohort 1, with 6 subjects randomly assigned to receive single doses of Compound A (400 mg) and 2 subjects randomly assigned to receive placebo. There were 7 subjects in Cohort 2 and Cohort 3, each with 6 subjects randomly assigned to receive single doses of Compound A (100 and 200 mg, respectively) and 1 subject randomly assigned to receive placebo. The dose of 100 mg selected in Cohort 2 was based on preliminary analysis of Cohort 1 data; this dose was predicted from PK/PD modeling to achieve a sustained CSF cGMP increase from baseline of approximately 200% when administered to steady state, and thereby provided a potentially therapeutic dose for further evaluation in future studies. There were 7 subjects in Cohort 4, with 6 subjects randomly assigned to receive a single dose of Compound A (50 mg [n=3] or 75 mg [n=3]) and 1 subject randomly assigned to receive placebo. The doses for Cohorts 3 and 4 were selected based on PK/PD modeling of the data in Cohorts 1 and 2.
Subjects in Cohort 2 who had received Compound A 100 mg or placebo under fasted conditions (1st Treatment Period) also participated in an evaluation of food effect on the PK of Compound A (2nd Treatment Period). After a washout period of at least 13 days (or 5 half-lives of Compound A, whichever was longer), subjects were admitted to the clinic for baseline assessments (2nd Baseline Period) and then received a single dose of the same treatment (Compound A 100 mg or placebo) after consuming a high fat and high calorie meal over 30 minutes. Blood PK samples were collected at prespecified time points. Safety evaluations were also assessed. CSF was not collected for PD evaluation during the 2nd Treatment Period. A Follow Up Visit occurred on Day 10 of Treatment Period 2.
In Part C, there was 1 cohort of 8 healthy elderly subjects (65 to 85 years of age) randomly assigned to receive a single dose of Compound A 100 mg or placebo in a ratio of 6:2, respectively.
In Part D, 3 cohorts of healthy adult Japanese subjects were randomized in parallel. There were 7 subjects in each cohort and subjects were randomly assigned to receive single doses of Compound A (25, 100, or 400 mg) or placebo in a ratio of 6:1, respectively.
Blood samples for determination of plasma Compound A concentrations were collected from predose to 216 hours postdose. On Day 1, blood PK samples were collected at predose and postdose 0.5 (30 minutes), 1, 1.5, 2, 3, 4, 5, 6, 8, 12, and 18 hours. Thereafter, samples were collected on Day 2 (24 and 36 hours postdose), Day 3 (48 hours postdose), Day 4 (72 hours postdose), Day 5 (96 hours postdose), Day 6 (120 hours postdose), Day 7 (144 hours postdose), and Day 10 (216 hours postdose).
Blood samples for determination of plasma Compound A concentrations were collected from predose to 216 hours postdose. For all cohorts, blood PK samples were collected on Day 1 at predose and postdose at 0.5 (30 minutes), 1, 1.5, 2, 3, 4, 5, 6, 8, 10, 12, and 18 hours. […]

[1] = 100 mg after high-fat and high-calorie meal
[2] = 400 mg, with weight as a covariate
[3] = Elderly:Younger Adults, single oral 100 mg
[4] = Japanese:non-Japanese, 25 mg, with weight as covariate
[5] = Japanese:non-Japanese, 25 mg, without weight as covariate
[6] = Japanese:non-Japanese, 100 mg, with weight as covariate
[7] = Japanese:non-Japanese, 100 mg, without weight as covariate
[8] = Japanese:non-Japanese, 400 mg, with weight as covariate
[9] = Japanese:non-Japanese, 400 mg, without weight as covariate

COc1ncc(C)c(-c2ccc3c(c2)[nH]c(=O)c2cnn([C@H]4CCOC4)c23)c1C [Compound A, (S)-7-(2-methoxy-3,5-dimethylpyridin-4-yl)-1-(tetrahydrofuran-3-yl)-1H-pyrazolo[4,3-c]quin olin-4(5H)-one]
geometric LS mean Cmax higher in Japanese than non-Japanese (25 mg, with weight as a covariate): 35.6%
geometric LS mean AUC(0-inf) higher in elderly than in younger healthy adult subjects (100 mg): approximately 41.5%
geometric LS mean Cmax higher in elderly than in younger healthy adult subjects (100 mg): approximately 45.5%
increase in the geometric LS mean Cmax, fed vs fasted (100 mg after high fat and high calorie meal): 44.4%
increase in the geometric LS mean AUC(0-inf), fed vs fasted [1]: 19.2%
increase in the geometric LS mean Cmax, fed vs fasted [1]: 44.400
geometric LS mean Cmax higher in Japanese than non-Japanese (100 mg, with weight as a covariate): 30.0%
geometric LS mean AUC(0-inf) higher in Japanese than non-Japanese [2]: 27.9%
geometric LS mean Cmax higher in Japanese than non-Japanese [2]: 40.4%
geometric LS mean Cmax higher in Japanese than non-Japanese across the 3 doses (25, 100, 400 mg): 35.2%
AUC(0-inf) Geometric LS Mean Ratio (90% CI) [3]: 1.415 (1.168, 1.715)
Cmax Geometric LS Mean Ratio (90% CI) [3]: 1.455 (1.198, 1.766)
AUC(0-inf) Geometric LS Mean Ratio (90% CI) (Fed:Fasted, 100 mg, Part B): 1.192 (1.003, 1.418)
AUC(0-t) Geometric LS Mean Ratio (90% CI) (Fed:Fasted, 100 mg, Part B): 1.186 (0.992, 1.418)
Cmax Geometric LS Mean Ratio (90% CI) (Fed:Fasted, 100 mg, Part B): 1.444 (1.210, 1.723)
AUC(O-inf) Geometric LS Mean Ratio (90% CI) [4]: 1.035 (0.819, 1.308)
Cmax Geometric LS Mean Ratio (90% CI) [4]: 1.356 (1.082, 1.699)
AUC(O-inf) Geometric LS Mean Ratio (90% CI) [5]: 1.057 (0.845, 1.323)
Cmax Geometric LS Mean Ratio (90% CI) [5]: 1.394 (1.122, 1.732)
AUC(O-inf) Geometric LS Mean Ratio (90% CI) [6]: 0.935 (0.767, 1.140)
Cmax Geometric LS Mean Ratio (90% CI) [6]: 1.300 (1.074, 1.573)
AUC(O-inf) Geometric LS Mean Ratio (90% CI) [7]: 0.944 (0.778, 1.147)
Cmax Geometric LS Mean Ratio (90% CI) [7]: 1.317 (1.091, 1.589)
AUC(O-inf) Geometric LS Mean Ratio (90% CI) [8]: 1.279 (1.035, 1.580)
Cmax Geometric LS Mean Ratio (90% CI) [8]: 1.404 (1.145, 1.721)
AUC(O-inf) Geometric LS Mean Ratio (90% CI) [9]: 1.300 (1.059, 1.595)
Cmax Geometric LS Mean Ratio (90% CI) [9]: 1.433 (1.176, 1.747)
AUC (human, plasma, oral, 25 mg, Japanese, 25 mg, with weight as covariate, read-out: AUC(O-inf) Geometric LS Means Test): 4500 ng·h/mL
Cmax (human, plasma, oral, 25 mg, Japanese, 25 mg, with weight as covariate, read-out: Cmax Geometric LS Means Test): 207 ng/mL
AUC (human, plasma, oral, 25 mg, Japanese, 25 mg, without weight as covariate, read-out: AUC(O-inf) Geometric LS Means Test): 4580 ng·h/mL
Cmax (human, plasma, oral, 25 mg, Japanese, 25 mg, without weight as covariate, read-out: Cmax Geometric LS Means Test): 212 ng/mL
AUC (human, plasma, oral, 25 mg, non-Japanese, 25 mg, with weight as covariate, read-out: AUC(O-inf) Geometric LS Means Reference): 4350 ng·h/mL
Cmax (human, plasma, oral, 25 mg, non-Japanese, 25 mg, with weight as covariate, read-out: Cmax Geometric LS Means Reference): 152 ng/mL
AUC (human, plasma, oral, 25 mg, non-Japanese, 25 mg, without weight as covariate, read-out: AUC(O-inf) Geometric LS Means Reference): 4340 ng·h/mL
Cmax (human, plasma, oral, 25 mg, non-Japanese, 25 mg, without weight as covariate, read-out: Cmax Geometric LS Means Reference): 152 ng/mL
AUC(0-inf) (human, plasma, oral, 100 mg, Fasted, 100 mg, Part B, read-out: AUC(0-inf) Geometric LS Means Reference): 14500 ng·h/mL
AUC(0-t) (human, plasma, oral, 100 mg, Fasted, 100 mg, Part B, read-out: AUC(0-t) Geometric LS Means Reference): 14400 ng·h/mL
Cmax (human, plasma, oral, 100 mg, Fasted, 100 mg, Part B, read-out: Cmax Geometric LS Means Reference): 371 ng/mL
AUC(0-inf) (human, plasma, oral, 100 mg, Fed, 100 mg, Part B, read-out: AUC(0-inf) Geometric LS Means Test): 17300 ng·h/mL
AUC(0-t) (human, plasma, oral, 100 mg, Fed, 100 mg, Part B, read-out: AUC(0-t) Geometric LS Means Test): 17100 ng·h/mL
Cmax (human, plasma, oral, 100 mg, Fed, 100 mg, Part B, read-out: Cmax Geometric LS Means Test): 536 ng/mL
AUC (human, plasma, oral, 100 mg, Japanese, 100 mg, with weight as covariate, read-out: AUC(O-inf) Geometric LS Means Test): 14200 ng·h/mL
Cmax (human, plasma, oral, 100 mg, Japanese, 100 mg, with weight as covariate, read-out: Cmax Geometric LS Means Test): 491 ng/mL
AUC (human, plasma, oral, 100 mg, Japanese, 100 mg, without weight as covariate, read-out: AUC(O-inf) Geometric LS Means Test): 14200 ng·h/mL
Cmax (human, plasma, oral, 100 mg, Japanese, 100 mg, without weight as covariate, read-out: Cmax Geometric LS Means Test): 492 ng/mL
AUC (human, plasma, oral, 100 mg, non-Japanese, 100 mg, with weight as covariate, read-out: AUC(O-inf) Geometric LS Means Reference): 15200 ng·h/mL
Cmax (human, plasma, oral, 100 mg, non-Japanese, 100 mg, with weight as covariate, read-out: Cmax Geometric LS Means Reference): 378 ng/mL
AUC (human, plasma, oral, 100 mg, non-Japanese, 100 mg, without weight as covariate, read-out: AUC(O-inf) Geometric LS Means Reference): 15000 ng·h/mL
Cmax (human, plasma, oral, 100 mg, non-Japanese, 100 mg, without weight as covariate, read-out: Cmax Geometric LS Means Reference): 373 ng/mL
half-life (human, plasma, oral, 100 mg, read-out: mean terminal half-life longer in elderly than in younger healthy adult subjects (converted)): ~10 h
AUC (human, plasma, oral, 400 mg, Japanese, 400 mg, with weight as covariate, read-out: AUC(O-inf) Geometric LS Means Test): 46000 ng·h/mL
Cmax (human, plasma, oral, 400 mg, Japanese, 400 mg, with weight as covariate, read-out: Cmax Geometric LS Means Test): 1170 ng/mL
AUC (human, plasma, oral, 400 mg, Japanese, 400 mg, without weight as covariate, read-out: AUC(O-inf) Geometric LS Means Test): 46500 ng·h/mL
Cmax (human, plasma, oral, 400 mg, Japanese, 400 mg, without weight as covariate, read-out: Cmax Geometric LS Means Test): 1180 ng/mL
AUC (human, plasma, oral, 400 mg, non-Japanese, 400 mg, with weight as covariate, read-out: AUC(O-inf) Geometric LS Means Reference): 36000 ng·h/mL
